In patent publication US20230002375A1, “HYDROPYRAZINO[1,2-B]ISOQUINOLINE COMPOUNDS FOR THE TREATMENT OF AUTOIMMUNE DISEASE” (Hoffmann-La Roche Inc., priority 2019, published 2023):

Key:
human TLR9 = target: T1, human TLR9 (Homo sapiens, UniProt Q9NR96); assay: HEK293-Blue-hTLR-9 cells assay (SEAP reporter, ODN2006 stimulation); type: cell-based; details: HEK293-Blue-hTLR9 cells, ODN2006, 20 hrs incubation; read-out: HEK/hTLR9 IC50
T1 sequence (Q9NR96 26-1032): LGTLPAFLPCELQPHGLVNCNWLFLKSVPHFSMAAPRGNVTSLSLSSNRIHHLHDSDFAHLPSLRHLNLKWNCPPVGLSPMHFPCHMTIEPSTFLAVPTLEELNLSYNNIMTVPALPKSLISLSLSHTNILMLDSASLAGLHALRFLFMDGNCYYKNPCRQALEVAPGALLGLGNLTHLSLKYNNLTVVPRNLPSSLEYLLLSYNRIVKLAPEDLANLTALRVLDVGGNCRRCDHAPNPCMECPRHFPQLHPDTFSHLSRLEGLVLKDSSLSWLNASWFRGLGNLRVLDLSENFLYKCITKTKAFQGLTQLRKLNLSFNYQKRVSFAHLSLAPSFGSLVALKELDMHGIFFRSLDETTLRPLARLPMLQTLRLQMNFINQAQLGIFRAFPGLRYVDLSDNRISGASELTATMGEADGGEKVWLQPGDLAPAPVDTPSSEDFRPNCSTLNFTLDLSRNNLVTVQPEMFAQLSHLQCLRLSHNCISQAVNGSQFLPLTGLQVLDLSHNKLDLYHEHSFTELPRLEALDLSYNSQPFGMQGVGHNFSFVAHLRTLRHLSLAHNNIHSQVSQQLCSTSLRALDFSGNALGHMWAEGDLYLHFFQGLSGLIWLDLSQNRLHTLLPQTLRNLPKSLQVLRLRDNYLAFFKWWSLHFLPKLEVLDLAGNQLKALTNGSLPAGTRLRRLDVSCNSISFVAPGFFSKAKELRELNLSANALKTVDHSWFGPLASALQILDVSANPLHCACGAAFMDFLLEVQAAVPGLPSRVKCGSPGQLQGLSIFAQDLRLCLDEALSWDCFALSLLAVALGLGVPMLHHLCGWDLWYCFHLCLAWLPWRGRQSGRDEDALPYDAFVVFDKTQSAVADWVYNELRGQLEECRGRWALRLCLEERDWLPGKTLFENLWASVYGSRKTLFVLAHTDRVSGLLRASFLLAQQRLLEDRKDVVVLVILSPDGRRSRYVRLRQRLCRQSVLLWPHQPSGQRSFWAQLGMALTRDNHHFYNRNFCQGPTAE
Method: The following tests were carried out in order to determine the activity of the compounds of formula (I), (Ia) or (Ib) in HEK293-Blue-hTLR-7/8/9 cells assay.
HEK293-Blue-hTLR-9 Cells Assay:
A stable HEK293-Blue-hTLR-9 cell line was purchased from InvivoGen (Cat.#: hkb-htlr9, San Diego, Calif., USA). These cells were originally designed for studying the stimulation of human TLR9 by monitoring the activation of NF-κB. A SEAP (secreted embryonic alkaline phosphatase) reporter gene was placed under the control of the IFN-β minimal promoter fused to five NF-κB and AP-1-binding sites. The SEAP was induced by activating NF-κB and AP-1 via stimulating HEK-Blue hTLR9 cells with TLR9 ligands. Therefore the reporter expression was declined by TLR9 antagonist under the stimulation of a ligand, such as ODN2006 (Cat.#: tlrl-2006-1, Invivogen, San Diego, Calif., USA), for incubation of 20 hrs. The cell culture supernatant SEAP reporter activity was determined using QUANTI-Blue™ kit (Cat.#: rep-qb1, Invivogen, San Diego, Calif., USA) at a wavelength of 640 nm, a detection medium that turns purple or blue in the presence of alkaline phosphatase.
HEK293-Blue-hTLR9 cells were incubated at a density of 250,000-450,000 cells/mL in a volume of 170 μL in a 96-well plate in Dulbecco's Modified Eagle's medium (DMEM) containing 4.5 g/L glucose, 50 U/mL penicillin, […], 2 mM L-glutamine, 10% (v/v) heat-inactivated fetal bovine serum with addition of 20 μL test compound in a serial dilution in the presence of final DMSO at 1% and 10 μL of 20 uM ODN2006 in above DMEM, perform incubation under 37° C. in a CO2 incubator for 20 hrs. Then 20 μL of the supernatant from each well was incubated with 180 μL Quanti-blue substrate solution at 37° C. for 2 h and the absorbance was read at 620-655 nm using a spectrophotometer. The signaling pathway that TLR9 activation leads to downstream NF-κB activation has been widely accepted, and therefore similar reporter assay was modified for evaluating TLR9 antagonist.

[1] = Human microsomal stability assay; type: in vitro ADME; details: human liver microsomes, 1 μM test compound, 0.5 mg/mL protein, 37° C.; low <7.0, medium 7.0-16.2, high 16.2-23.2 mL/min/kg
Method: Human Microsomal Stability Assay
Human liver microsomes (Cat.NO.: 452117, Corning, USA) were preincubated with test compound for 10 minutes at 37° C. in 100 mM potassium phosphate buffer, pH 7.4. The reactions were initiated by adding NADPH regenerating system. The final incubation mixtures contained 1 μM test compound, 0.5 mg/mL liver microsomal protein, 1 mM MgCl2, 1 mM NADP, 1 unit/mL isocitric dehydrogenase and 6 mM isocitric acid in 100 mM potassium phosphate buffer, pH 7.4. After incubation times of 0, 3, 6, 9, 15 and 30 minutes at 37° C., 300 μL of cold ACN (including internal standard) was added to 100 μL incubation mixture to terminate the reaction. Following precipitation and centrifugation, 100 uL supernatant will be taken out and added 300 uL water. The amount of compound remaining in the samples was determined by LC-MS/MS. Controls of no NADPH regenerating system at zero and 30 minutes were also prepared and analyzed. The results were categorized as: low (<7.0 mL/min/kg), medium (7.0-16.2 mL/min/kg) and high (16.2-23.2 mL/min/kg).

Row | Structure (SMILES) | IC50 (human TLR9) [nM] | CL(h) [1] [mL/min/kg]
1 | C[C@@H]1CN(c2ccc(C#N)c3ncccc23)C[C@@H]2Cc3cc(N4C[C@@H]5CNCCN5C4=O)ccc3CN21 (single isomer, unassigned) [Example 17A] | 107 | 
2 | C[C@@H]1CN(c2ccc(C#N)c3ncccc23)C[C@@H]2Cc3cc(N4C[C@H]5CNCCN5C4=O)ccc3CN21 (single isomer, unassigned) [Example 17B] | 106 | 
3 | C[C@@H]1CN(c2ccc(C#N)c3ncccc23)C[C@@H]2Cc3cc(N4CC5NCCOC5C4)ccc3CN21 (stereo in doubt) [Example 10, 5-[(4R,11aS)-9-[(4aS,7aS)-3,4,4a,5,7,7a-hexahydro-2H-pyrrolo[3,4-b][1,4]oxazin-6-yl]-4-methyl-1,3,4,6,11,11a-hexahydropyrazino[1,2-b]isoquinolin-2-yl]quinoline-8-carbonitrile] | 78.2 | 9.3
4 | C[C@@H]1CN(c2ccc(C#N)c3ncccc23)C[C@@H]2Cc3ccc(N4CCOCC(N)C4)cc3CN21 (stereo partly drawn) [Example 1, 5-[(4R,11aS)-8-(6-amino-1,4-oxazepan-4-yl)-4-methyl-1,3,4,6,11,11a-hexahydropyrazino[1,2-b]isoquinolin-2-yl]quinoline-8-carbonitrile] | 64.6 | 
5 | C[C@@H]1CN(c2ccc(C#N)c3ncccc23)C[C@@H]2Cc3ccc(NCCN4CC[C@H](O)C4)cc3CN21 [Example 2, 5-[(4R,11aS)-8-[2-[(3S)-3-hydroxypyrrolidin-1-yl]ethylamino]-4-methyl-1,3,4,6,11,11a-hexahydropyrazino[1,2-b]isoquinolin-2-yl]quinoline-8-carbonitrile] | 44.5 | 
6 | C[C@@H]1CN(c2ccc(C#N)c3ncccc23)C[C@@H]2Cc3ccc(OCCN(C)C)cc3CN21 [Example 5, 5-[(4R,11aS)-8-[2-(dimethylamino)ethoxy]-4-methyl-1,3,4,6,11,11a-hexahydropyrazino[1,2-b]isoquinolin-2-yl]quinoline-8-carbonitrile] | 96.3 | 
7 | C[C@@H]1CN(c2ccc(C#N)c3ncccc23)C[C@@H]2Cc3cc(N[C@@H]4CNC[C@@H]4F)ccc3CN21 [Example 6, 5-[(4R,11aS)-4-methyl-9-[[(3R,4S)-4-fluoropyrrolidin-3-yl]amino]-1,3,4,6,11,11a-hexahydropyrazino[1,2-b]isoquinolin-2-yl]quinoline-8-carbonitrile] | 106 | 6.8
8 | CO[C@H]1CNC[C@H]1Nc1ccc2c(c1)C[C@H]1CN(c3ccc(C#N)c4ncccc34)C[C@@H](C)N1C2 [Example 7, 5-[(4R,11aS)-9-[[(3R,4S)-4-methoxypyrrolidin-3-yl]amino]-4-methyl-1,3,4,6,11,11a-hexahydropyrazino[1,2-b]isoquinolin-2-yl]quinoline-8-carbonitrile] | 109 | 
9 | C[C@@H]1CN(c2ccc(C#N)c3ncccc23)C[C@@H]2Cc3cc(N4C[C@@H](F)[C@@H](N)C4)ccc3CN21 [Example 8, 5-[(4R,11aS)-9-[(3S,4R)-3-amino-4-fluoro-pyrrolidin-1-yl]-4-methyl-1,3,4,6,11,11a-hexahydropyrazino[1,2-b]isoquinolin-2-yl]quinoline-8-carbonitrile] | 85.3 | 9.6
10 | CO[C@H]1CN(c2ccc3c(c2)C[C@H]2CN(c4ccc(C#N)c5ncccc45)C[C@@H](C)N2C3)C[C@H]1N [Example 9, 5-[(4R,11aS)-9-[(3R,4S)-3-amino-4-methoxy-pyrrolidin-1-yl]-4-methyl-1,3,4,6,11,11a-hexahydropyrazino[1,2-b]isoquinolin-2-yl]quinoline-8-carbonitrile] | 139 | 8.8
11 | C[C@@H]1CN(c2ccc(C#N)c3ncccc23)C[C@@H]2Cc3cc(OCCN(C)C)ccc3CN21 [Example 11, 5-[(4R,11aS)-9-[2-(dimethylamino)ethoxy]-4-methyl-1,3,4,6,11,11a-hexahydropyrazino[1,2-b]isoquinolin-2-yl]quinoline-8-carbonitrile] | 81 | 
12 | C[C@@H]1CN(c2ccc(C#N)c3ncccc23)C[C@@H]2Cc3cc(OC[C@@H]4CCN4)ccc3CN21 [Example 12, 5-[(4R,11aS)-9-[[(2S)-azetidin-2-yl]methoxy]-4-methyl-1,3,4,6,11,11a-hexahydropyrazino[1,2-b]isoquinolin-2-yl]quinoline-8-carbonitrile] | 116 | 
13 | C[C@@H]1CN(c2ccc(C#N)c3ncccc23)C[C@@H]2Cc3cc(N4CCN(C(=O)C(C)(C)N)CC4)ccc3CN21 [Example 13, 5-[(4R,11aS)-9-[4-(2-amino-2-methyl-propanoyl)piperazin-1-yl]-4-methyl-1,3,4,6,11,11a-hexahydropyrazino[1,2-b]isoquinolin-2-yl]quinoline-8-carbonitrile] | 85.6 | 7.6
14 | C[C@@H]1CN(c2ccc(C#N)c3ncccc23)C[C@@H]2Cc3cc(N4C[C@@H]5C[C@H]4CN5C(=O)C(C)(C)N)ccc3CN21 [Example 15, 5-[(4R,11aS)-9-[(1S,4S)-5-(2-amino-2-methyl-propanoyl)-2,5-diazabicyclo[2.2.1]heptan-2-yl]-4-methyl-1,3,4,6,11,11a-hexahydropyrazino[1,2-b]isoquinolin-2-yl]quinoline-8-carbonitrile] | 125 | 
15 | C[C@@H]1CN(c2ccc(C#N)c3ncccc23)C[C@@H]2Cc3cc(N4CC5CCNCC5C4=O)ccc3CN21 (stereo partly drawn) [Example 18, 5-[(4R,11aS)-4-methyl-9-(3-oxo-3a,4,5,6,7,7a-hexahydro-1H-pyrrolo[3,4-c]pyridin-2-yl)-1,3,4,6,11,11a-hexahydropyrazino[1,2-b]isoquinolin-2-yl]quinoline-8-carbonitrile] | 64.6 | 
16 | C[C@@H]1CN(c2ccc(C#N)c3ncccc23)C[C@@H]2Cc3cc(N4CC5CNCCC5C4=O)ccc3CN21 (stereo partly drawn) [Example 19, 5-[(4R,11aS)-4-methyl-9-(1-oxo-3a,4,5,6,7,7a-hexahydro-3H-pyrrolo[3,4-c]pyridin-2-yl)-1,3,4,6,11,11a-hexahydropyrazino[1,2-b]isoquinolin-2-yl]quinoline-8-carbonitrile] | 44.5 | 
